Where two headings read alike, the source gives them in different places.
Molecular target: T1, F508delCFTR (Homo sapiens, UniProt P13569, DEL508-508)
T1 construct: expressed in transfected cells; host or cells: CFBE41o- human lung-derived epithelial cells (CFBE4lo-F508delCFTR-HRP), doxycycline-inducible
Assay: Cell Surface Expression-Horse Radish Peroxidase (CSE-HRP) Assay;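 for Maximum % activity (with co-corrector): co-corrector and positive control are both the same reference corrector at 2 µM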;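 for Maximum % activity (without co-corrector): percent of the 2 µM on-plate positive control corrector response above DMSO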
Format: cell-based
Conditions: for Maximum % activity (with co-corrector) / Emax: maximum at any tested concentration, normalized to on-plate positive control; for Emax: read-out: Maximum % activity (without co-corrector)

[1] = test compound without co-corrector, read-out: EC50 (without co-corrector)
[2] = with co-corrector (2 μM of 3-[(2R,4R)-4-({[1-(2,2-difluoro-1,3-benzodioxol-5-yl)cyclopropyl]carbonyl}amino)-7-methoxy-3,4-dihydro-2H-chromen-2-yl]benzoic acid), read-out: EC50 (with co-corrector)
[3] = test compound without co-corrector
[4] = with co-corrector (2 μM of 3-[(2R,4R)-4-({[1-(2,2-difluoro-1,3-benzodioxol-5-yl)cyclopropyl]carbonyl}amino)-7-methoxy-3,4-dihydro-2H-chromen-2-yl]benzoic acid)
[5] = CSE-HRP, test compound without co-corrector, read-out: EC50 (without co-corrector)
[6] = CSE-HRP, with co-corrector (2 μM of 3-[(2R,4R)-4-({[1-(2,2-difluoro-1,3-benzodioxol-5-yl)cyclopropyl]carbonyl}amino)-7-methoxy-3,4-dihydro-2H-chromen-2-yl]benzoic acid), read-out: EC50 (with co-corrector)
[7] = CSE-HRP, with co-corrector (2 μM)

T1 sequence (P13569 with tags, fused parts or gaps DEL508-508): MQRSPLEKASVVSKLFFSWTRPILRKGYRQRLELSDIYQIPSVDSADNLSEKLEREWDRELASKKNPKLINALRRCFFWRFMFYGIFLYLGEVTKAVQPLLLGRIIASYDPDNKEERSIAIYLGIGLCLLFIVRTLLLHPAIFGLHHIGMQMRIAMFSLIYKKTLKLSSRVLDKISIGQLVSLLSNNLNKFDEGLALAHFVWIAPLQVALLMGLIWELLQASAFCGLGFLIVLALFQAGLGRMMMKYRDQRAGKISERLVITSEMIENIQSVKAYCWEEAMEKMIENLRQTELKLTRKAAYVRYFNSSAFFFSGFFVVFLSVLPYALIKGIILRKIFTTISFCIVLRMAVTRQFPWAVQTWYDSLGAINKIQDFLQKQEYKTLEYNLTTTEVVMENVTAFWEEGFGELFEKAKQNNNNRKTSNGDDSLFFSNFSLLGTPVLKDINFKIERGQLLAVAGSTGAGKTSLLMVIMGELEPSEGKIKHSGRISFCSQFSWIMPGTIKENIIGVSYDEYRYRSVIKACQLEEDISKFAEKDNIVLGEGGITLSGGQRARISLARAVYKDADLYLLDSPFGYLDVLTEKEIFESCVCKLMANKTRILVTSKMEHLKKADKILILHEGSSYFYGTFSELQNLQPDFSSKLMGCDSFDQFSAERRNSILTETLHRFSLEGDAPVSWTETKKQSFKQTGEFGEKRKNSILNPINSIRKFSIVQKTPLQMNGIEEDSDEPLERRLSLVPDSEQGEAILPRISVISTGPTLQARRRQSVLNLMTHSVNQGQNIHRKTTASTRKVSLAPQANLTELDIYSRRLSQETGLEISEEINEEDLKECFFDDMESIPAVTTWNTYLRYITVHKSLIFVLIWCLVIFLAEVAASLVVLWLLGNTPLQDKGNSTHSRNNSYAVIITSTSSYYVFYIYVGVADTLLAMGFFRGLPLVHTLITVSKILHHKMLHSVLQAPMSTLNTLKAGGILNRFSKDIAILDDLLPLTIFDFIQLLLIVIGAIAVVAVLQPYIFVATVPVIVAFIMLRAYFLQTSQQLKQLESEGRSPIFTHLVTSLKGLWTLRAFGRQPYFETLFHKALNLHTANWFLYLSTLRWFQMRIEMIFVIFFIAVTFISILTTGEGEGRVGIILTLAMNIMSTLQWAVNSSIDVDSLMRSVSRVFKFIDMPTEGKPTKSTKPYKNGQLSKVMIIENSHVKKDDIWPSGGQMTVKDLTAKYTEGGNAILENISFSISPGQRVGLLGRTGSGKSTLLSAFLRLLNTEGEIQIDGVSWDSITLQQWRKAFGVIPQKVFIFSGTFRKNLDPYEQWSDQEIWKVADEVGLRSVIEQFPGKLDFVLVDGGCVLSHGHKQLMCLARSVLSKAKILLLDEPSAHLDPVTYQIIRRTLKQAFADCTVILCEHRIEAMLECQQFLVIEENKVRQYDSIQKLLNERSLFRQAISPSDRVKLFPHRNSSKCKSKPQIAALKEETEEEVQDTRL

SMILES	EC50 [1]	EC50 [2]	Maximum % activity (with co-corrector) (with co-corrector (2 μM))	Emax (without co-corrector)	Emax [3]	Maximum % activity (with co-corrector) [4]	EC50 [5]	EC50 [6]	Maximum % activity (with co-corrector) [7]	Emax (CSE-HRP, without co-corrector)
COc1cc(C(F)(F)F)ccc1CN[C@H]1[C@H](C(C)(C)C)[C@@H](C(=O)O)N(C(=O)C2CCCCC2)[C@H]1c1ccccc1OC(F)F [Example I-43]	1 to 10 µM	1 to 10 µM	+++ (≥350)	< 100%						
COc1ccc2ccccc2c1CN[C@H]1[C@H](C(C)(C)C)[C@@H](C(=O)O)N(C(=O)C2CCCCC2)[C@H]1c1ccccc1 [Example I-188]	1 to 10 µM	1 to 10 µM	++ (≥150 and <350)	< 100%						
COCC1(c2ccc(OC)c(CN[C@H]3[C@H](C(C)(C)C)[C@@H](C(=O)O)N(C(=O)C4CCCCC4)[C@H]3c3ccccc3)c2)CC1 [II-420]	1 to 10 µM	1 to 10 µM			100 to 200%	+++ (≥350)				
COCCOc1cnc(Cl)cc1CN[C@@H]1[C@@H](C(C)(C)C)[C@H](C(=O)O)N(C(=O)C2CCCCC2)[C@@H]1c1ccccc1 (racemic) [III-72]	> 10 µM	1 to 10 µM			< 100%	++ (≥150 and <350)				
COc1ncc(C2CCC2)cc1CN[C@H]1[C@H](C(C)(C)C)[C@@H](C(=O)O)N(C(=O)OC(C)C)[C@H]1c1cccnc1N(C)C [III-224]	1 to 10 µM	1 to 10 µM	+++ (≥350)		> 200%					
CC(C)(C)[C@H]1[C@H](NCc2cc3ccccc3o2)[C@H](c2ccccc2)N(C(=O)C2CCCCC2)[C@@H]1C(=O)O [Example I-46]	1 to 10 µM	1 to 10 µM	++ (≥150 and <350)	< 100%						
COc1ccc(C(F)(F)F)cc1CN[C@@H]1[C@@H](C(C)(C)C)[C@H](C(=O)O)N(C(=O)C(C)(C)OC)[C@@H]1c1ccccc1 (racemic) [Example I-41]	> 10 µM	1 to 10 µM	++ (≥150 and <350)	< 100%						
COc1ccc(C(C)(C)C)cc1CN[C@H]1[C@H](C(C)(C)C)[C@@H](C(=O)O)N(C(=O)C2Cc3ccccc3O2)[C@H]1c1cccnc1N(C)C (single isomer, unassigned) [II-421]	1 to 10 µM	1 to 10 µM			< 100%	++ (≥150 and <350)				
COc1ccc(C(F)(F)F)cc1CN[C@H]1[C@H](C(C)(C)C)[C@@H](C(=O)O)N(C(=O)C2CCc3ccccc3O2)[C@H]1c1ccccc1 (some centres unmarked) [II-163]							1 to 10 µM	< 1 µM	+++ (≥350)	< 100%
COc1ccc(C2(C)CCC2)cc1CN[C@H]1[C@H](C(C)(C)C)[C@@H](C(=O)O)N(C(=O)OC(C)C)[C@H]1c1ccccc1 [II-537]	1 to 10 µM	1 to 10 µM			> 200%	+++ (≥350)				
CC(C)(C)[C@@H]1[C@@H](Nc2cccc(OC(F)F)n2)[C@@H](c2ccccc2)N(C(=O)C2CCCCC2)[C@H]1C(=O)O (racemic) [Example I-21]	1 to 10 µM	1 to 10 µM	+++ (≥350)	< 100%						
COc1ccc(C(F)(F)F)cc1CN[C@H]1[C@H](C(C)(C)C)[C@@H](C(=O)O)N(C(=O)[C@H](C)c2ccccc2)[C@H]1c1cccnc1OC [II-541]	1 to 10 µM	1 to 10 µM			100 to 200%	+++ (≥350)				
COc1ccc(C(C)(C)C)cc1CN[C@H]1[C@H](C(C)(C)C)[C@@H](C(=O)O)N(C(=O)C2CCC(C)CC2)[C@H]1c1ccccc1 (some centres unmarked) [III-174]	< 1 µM	< 1 µM	+++ (≥350)		> 200%					
COCc1ccc(OC)c(CN[C@H]2[C@H](C(C)(C)C)[C@@H](C(=O)O)N(C(=O)C3CCCCC3)[C@H]2c2ccccc2)c1 [II-242]							1 to 10 µM	1 to 10 µM	+++ (≥350)	100 to 200%
COc1ccc(Cl)cc1CN[C@H]1[C@H](C(C)(C)C)[C@@H](C(=O)O)N(C(=O)OC(C)C)[C@H]1c1ccccc1C(C)C [II-567]	1 to 10 µM	1 to 10 µM			> 200%	+++ (≥350)				
COc1ccc(C2(C(F)(F)F)CC2)cc1CN[C@H]1[C@H](C(C)(C)C)[C@@H](C(=O)O)N(C(=O)[C@@H]2CCCCO2)[C@H]1c1cccnc1N(C)C [Example I-176]	1 to 10 µM	1 to 10 µM	+++ (≥350)	> 200%						

SMILES	EC50 [1]	EC50 [2]	Maximum % activity (with co-corrector) (with co-corrector (2 μM))	Emax (without co-corrector)	Emax [3]	Maximum % activity (with co-corrector) [4]	EC50 [5]	EC50 [6]	Maximum % activity (with co-corrector) [7]	Emax (CSE-HRP, without co-corrector)
COc1ncc(C2CC2)cc1CN[C@H]1[C@H](C(C)(C)C)[C@@H](C(=O)O)N(C(=O)[C@@H]2CCCO2)[C@H]1c1ccccc1Br [Example I-293]							1 to 10 µM	1 to 10 µM	+++ (≥350)	> 200%
CC(C)(C)[C@H]1[C@H](NCc2ccc3c(c2)OC(F)(F)O3)[C@H](c2ccccc2)N(C(=O)C2CCCCC2)[C@@H]1C(=O)O [III-132]	> 10 µM	1 to 10 µM	++ (≥150 and <350)		< 100%					
COc1ccc(C(C)(C)C)cc1CN[C@H]1[C@H](C(C)(C)C)[C@@H](C(=O)O)N(C(=O)C2CCCC(C)(C)C2)[C@H]1c1ccccc1 (some centres unmarked) [III-203]	< 1 µM	< 1 µM	+++ (≥350)		> 200%					
COc1nc(C(C)(C)C)ccc1CN[C@H]1[C@H](C(C)(C)C)[C@@H](C(=O)O)N(C(=O)OC(C)C)[C@H]1c1cccnc1N(C)C [III-219]	1 to 10 µM	< 1 µM	+++ (≥350)		100 to 200%					
COc1ccc(C(C)(C)C)cc1CN[C@H]1[C@H](C(C)(C)C)[C@@H](C(=O)O)N(C(=O)C2OCCc3ccccc32)[C@H]1c1ccccc1 (some centres unmarked) [II-165]							1 to 10 µM	< 1 µM	+++ (≥350)	> 200%
COc1ccc(C(C)(C)C)cc1CN[C@H]1[C@H](C(C)(C)C)[C@@H](C(=O)O)N(C(=O)C23CC(F)(C2)C3)[C@H]1c1ccccc1 [II-498]	1 to 10 µM	1 to 10 µM			100 to 200%	+++ (≥350)				
COc1ncc(C2CCC2)cc1CN[C@H]1[C@H](C(C)(C)OC)[C@@H](C(=O)O)N(C(=O)C2CCCCC2)[C@H]1c1ccccc1 [Example I-115]	1 to 10 µM	< 1 µM	+++ (≥350)	> 200%						
CC(C)(C)[C@H]1[C@H](Nc2cc(C(F)(F)F)cc(C(F)(F)F)c2)[C@H](c2ccccc2)N(C(=O)C2CCCCC2)[C@@H]1C(=O)O [II-148]							< 1 µM	< 1 µM	+++ (≥350)	100 to 200%
COc1nc(C(C)(C)C)ccc1CN[C@H]1[C@H](C(C)(C)C)[C@@H](C(=O)O)N(C(=O)OC(C)C)[C@H]1c1ccccc1 [Example I-194]	1 to 10 µM	1 to 10 µM	+++ (≥350)	> 200%						
COc1ccc(C(C)(C)C)cc1CN[C@H]1[C@H](C(C)(C)C)[C@@H](C(=O)O)N(C(=O)Cc2ccsc2)[C@H]1c1ccccc1 [Example I-92]	1 to 10 µM	1 to 10 µM	+++ (≥350)	> 200%						
COc1ncc(C(F)(F)F)cc1N[C@H]1[C@H](C(C)(C)C)[C@@H](C(=O)O)N(C(=O)[C@H]2CCCC[C@@H]2C(F)(F)F)[C@H]1c1cccnc1N(C)C [III-212]	> 10 µM	1 to 10 µM	++ (≥150 and <350)		< 100%					
COc1ccc(C(F)(F)F)cc1CN[C@@H]1[C@@H](C(C)(C)C)[C@H](C(=O)O)N(C(=O)C2CCCCC2)[C@@H]1c1ccccc1 (racemic) [Example I-6]	1 to 10 µM	1 to 10 µM	+++ (≥350)	> 200%						
COc1ccc(C(C)(C)C)cc1CN[C@H]1[C@H](C(C)(C)C)[C@@H](C(=O)O)N(C(=O)[C@@H](C)OC)[C@H]1c1ccccc1 [II-311]							1 to 10 µM	1 to 10 µM	+++ (≥350)	> 200%
COc1ccc(-c2ccco2)cc1CN[C@H]1[C@H](C(C)(C)C)[C@@H](C(=O)O)N(C(=O)C2CCCCC2)[C@H]1c1ccccc1 [II-291]							1 to 10 µM	1 to 10 µM	+++ (≥350)	> 200%
COc1ccc(C(C)(C)C)cc1CN[C@H]1[C@H](C(C)(C)C)[C@@H](C(=O)O)N(C(=O)[C@H](C)[C@@H]2CCCCO2)[C@H]1c1ccccc1 (relative stereo) [II-454]	1 to 10 µM	1 to 10 µM			100 to 200%	+++ (≥350)				
COc1ncc(C2=CCOCC2)cc1CN[C@H]1[C@H](C(C)(C)C)[C@@H](C(=O)O)N(C(=O)C2CCCCC2)[C@H]1c1ccccc1 [II-349]	1 to 10 µM	1 to 10 µM			< 100%	+++ (≥350)				
